From PMC4058769 (Organic & biomolecular chemistry, 2009)

Columns and labels:
Type in all cases: cell-based
[1] = tested on: MCF-7 cells (breast cancer); assay: in vitro cytotoxic assay, MCF-7
[2] = tested on: HeLa (human cervix carcinoma); assay: cytotoxicity assay, HeLa
[3] = tested on: PC-3 cells (prostate cancer); assay: in vitro cytotoxic assay, PC-3
[4] = tested on: L-929 (mouse fibroblasts); assay: antiproliferative assay, L-929
K-562 (human leukaemia) = assay: antiproliferative assay, K-562

CCC(=O)O[C@H]1[C@H](C)O[C@@H](O[C@H]2[C@H](N(C)C)[C@@H](O)[C@H](O[C@H]3[C@@H](CC=O)C[C@@H](C)[C@@H](O)/C=C/C=C/C[C@@H](C)OC(=O)C[C@@H](O)[C@@H]3OC)O[C@@H]2C)C[C@@]1(C)O [compound 1, leucomycin A7]
not active at all: cytotoxic activity in MCF-7 (in words) [1] | cytotoxic activity in HeLa (in words) [2] | cytotoxic activity in PC-3 (in words) [3] | antiproliferative activity in L-929 (in words) [4] | antiproliferative activity in K-562 (in words) (K-562 (human leukaemia))
> 66 µM: CC50 ([2]; read-out: HeLa CC50, cytotoxicity, HeLa human cervix carcinoma) | GI50 ([4]; read-out: L-929 GI50, antiproliferative activity, L-929 mouse fibroblasts) | GI50 (K-562 (human leukaemia); read-out: K-562 GI50, antiproliferative activity, K-562 human leukaemia)
